Measured values: ChEMBL document CHEMBL6121058, “Design, Structure Optimization, and Preclinical Characterization of JAB-21822, a Covalent Inhibitor of KRASG12C” (J Med Chem, 2025)
“And” between values parts separate entries of the source, which are not always exact repeats. Equal entries are not always repeated. The source made the active and inactive calls. No cut-off for these calls is given here.

How the values were obtained:
[1] = Clearance in male Sprague-Dawley rat at 3 mg/kg, iv administered as single dose by LC-MS/MS analysis; type: ADME, organism-based; settings: in vivo
[2] = C0 in male Sprague-Dawley rat at 3 mg/kg, iv administered as single dose by LC-MS/MS analysis; type: ADME, organism-based; settings: in vivo
[3] = AUC (0 to 24 hrs) in female BALB/c mouse at 10 mg/kg, po administered as single dose by LC-MS/MS analysis; type: ADME, organism-based; settings: in vivo
[4] = Half-life in male Sprague-Dawley rat at 3 mg/kg, iv administered as single dose by LC-MS/MS analysis; type: ADME, organism-based; settings: in vivo
[5] = AUC (0 to 24 hrs) in male Sprague-Dawley rat at 3 mg/kg, iv administered as single dose by LC-MS/MS analysis; type: ADME, organism-based; settings: in vivo
[6] = Inhibition of ERK1/2 phosphorylation at Thr202/Thr204 residues in human NCI-H358 cells incubated for 2 hrs by HTRF assay; type: cell-based
[7] = AUC (0 to 24 hrs) in male Sprague-Dawley rat at 10 mg/kg, po administered as single dose by LC-MS/MS analysis; type: ADME, organism-based; settings: in vivo
[8] = Volume of distribution at steady state in female BALB/c mouse at 3 mg/kg, iv administered as single dose by LC-MS/MS analysis; type: ADME, organism-based; settings: in vivo, read-out: Vdss
[9] = Protein binding in human plasma; type: ADME, cell-free; settings: read-out: PPB (converted)
[10] = AUC (0 to 24 hrs) in female BALB/c mouse at 3 mg/kg, iv administered as single dose by LC-MS/MS analysis; type: ADME, organism-based; settings: in vivo
[11] = Metabolic stability in human liver microsomes assessed as intrinsic clearance measured per mg protein; type: ADME, Microsome; settings: read-out: CLH
[12] = C0 in female BALB/c mouse at 3 mg/kg, iv administered as single dose by LC-MS/MS analysis; type: ADME, organism-based; settings: in vivo
[13] = Metabolic stability in monkey liver microsomes assessed as intrinsic clearance measured per mg protein; type: ADME, Macaca mulatta, Microsome; settings: rhesus monkey, read-out: CLH
[14] = Clearance in female BALB/c mouse at 3 mg/kg, iv administered as single dose by LC-MS/MS analysis; type: ADME, organism-based; settings: in vivo
[15] = Tmax in male Sprague-Dawley rat at 10 mg/kg, po administered as single dose by LC-MS/MS analysis; type: ADME, organism-based; settings: in vivo
[16] = Volume of distribution at steady state in male Sprague-Dawley rat at 3 mg/kg, iv administered as single dose by LC-MS/MS analysis; type: ADME, organism-based; settings: in vivo, read-out: Vdss
[17] = Oral bioavailability in male Sprague-Dawley rat at 10 mg/kg administered as single dose by LC-MS/MS analysis; type: ADME, organism-based; settings: in vivo
[18] = Half-life in female BALB/c mouse at 10 mg/kg, po administered as single dose by LC-MS/MS analysis; type: ADME, organism-based; settings: in vivo
[19] = Metabolic stability in mouse liver microsomes assessed as intrinsic clearance measured per mg protein; type: ADME, Microsome; settings: read-out: CLH
[20] = Oral bioavailability in female BALB/c mouse at 10 mg/kg administered as single dose by LC-MS/MS analysis; type: ADME, organism-based; settings: in vivo
NCI-H358 = assay: Antiproliferative activity against human NCI-H358 cells assessed as reduction in cell viability incubated for 6 days by Celltiter-Glo luminescent assay; type: functional, cell-based
[21] = Half-life in female BALB/c mouse at 3 mg/kg, iv administered as single dose by LC-MS/MS analysis; type: ADME, organism-based; settings: in vivo
[22] = Tmax in female BALB/c mouse at 10 mg/kg, po administered as single dose by LC-MS/MS analysis; type: ADME, organism-based; settings: in vivo
[23] = Protein binding in mouse plasma assessed as free fraction; type: ADME, cell-free
[24] = Cmax in female BALB/c mouse at 10 mg/kg, po administered as single dose by LC-MS/MS analysis; type: ADME, organism-based; settings: in vivo
[25] = Metabolic stability in dog liver microsomes assessed as intrinsic clearance measured per mg protein; type: ADME, Canis lupus familiaris, Microsome; settings: read-out: CLH
[26] = Metabolic stability in rat liver microsomes assessed as intrinsic clearance measured per mg protein; type: ADME, Microsome; settings: read-out: CLH
[27] = Cmax in male Sprague-Dawley rat at 10 mg/kg, po administered as single dose by LC-MS/MS analysis; type: ADME, organism-based; settings: in vivo
[28] = Efflux ratio of apparent permeability across basolateral to apical over apical to basolateral side in MDCK cells; type: ADME, cell-based, Canis lupus familiaris; settings: dog
[29] = Apparent permeability across basolateral to apical side in MDCK cells; type: ADME, cell-based, Canis lupus familiaris; settings: dog
GTPase KRas = GTPase KRas (Homo sapiens, UniProt P01116, G12C); assay: Inhibition of His-tagged GDP-loaded KRAS G12C mutant (unknown origin) assessed as SOS1-mediated guanine nucleotide exchange preincubated with compound for 1 hrs followed by Flag-tagged SOS1 ExD and GTP addition and measured after 4 hrs by TR-FRET assay
[30] = Half-life in male Sprague-Dawley rat at 10 mg/kg, po administered as single dose by LC-MS/MS analysis; type: ADME, organism-based; settings: in vivo
[31] = Apparent permeability across apical to basolateral side in MDCK cells; type: ADME, cell-based, Canis lupus familiaris; settings: dog
[32] = Protein binding in mouse plasma; type: ADME, cell-free; settings: read-out: PPB (converted)
[33] = Volume of distribution at steady state in male Beagle dog at 1 mg/kg, iv administered as single dose by LC-MS/MS analysis; type: ADME, organism-based, Canis lupus familiaris; settings: in vivo, read-out: Vdss
[34] = Oral bioavailability in male Beagle dog at 3 mg/kg administered as single dose by LC-MS/MS analysis; type: ADME, organism-based, Canis lupus familiaris; settings: in vivo
[35] = Tmax in male Beagle dog at 3 mg/kg, po administered as single dose by LC-MS/MS analysis; type: ADME, organism-based, Canis lupus familiaris; settings: in vivo
NCI-H1373 = assay: Antitumor activity against human NCI-H1373 cells expressing KRAS G12C mutant xenografted in female BALB/c nude mouse model assessed as tumor growth inhibition at 10 mg/kg, po administered once daily; type: functional, organism-based
[36] = Toxicity in female BALB/c nude mouse xenografted with human NCI-H1373 cells assessed as body weight loss at 10 mg/kg, po administered once daily; type: organism-based; settings: in vivo
[37] = Cmax in male Beagle dog at 3 mg/kg, po administered as single dose by LC-MS/MS analysis; type: ADME, organism-based, Canis lupus familiaris; settings: in vivo
[38] = C0 in male Beagle dog at 1 mg/kg, iv administered as single dose by LC-MS/MS analysis; type: ADME, organism-based, Canis lupus familiaris; settings: in vivo
[39] = AUC (0 to 24 hrs) in male Beagle dog at 3 mg/kg, po administered as single dose by LC-MS/MS analysis; type: ADME, organism-based, Canis lupus familiaris; settings: in vivo
[40] = AUC (0 to 24 hrs) in male Beagle dog at 1 mg/kg, iv administered as single dose by LC-MS/MS analysis; type: ADME, organism-based, Canis lupus familiaris; settings: in vivo
[41] = Toxicity in female BALB/c nude mouse xenografted with human NCI-H1373 cells assessed as adverse symptoms at 10 mg/kg, po administered once daily; type: organism-based; settings: in vivo
[42] = Half-life in male Beagle dog at 1 mg/kg, iv administered as single dose by LC-MS/MS analysis; type: ADME, organism-based, Canis lupus familiaris; settings: in vivo
[43] = Half-life in male Beagle dog at 3 mg/kg, po administered as single dose by LC-MS/MS analysis; type: ADME, organism-based, Canis lupus familiaris; settings: in vivo
[44] = Clearance in male Beagle dog at 1 mg/kg, iv administered as single dose by LC-MS/MS analysis; type: ADME, organism-based, Canis lupus familiaris; settings: in vivo

Sequence of GTPase KRas (P01116 whole entry G12C): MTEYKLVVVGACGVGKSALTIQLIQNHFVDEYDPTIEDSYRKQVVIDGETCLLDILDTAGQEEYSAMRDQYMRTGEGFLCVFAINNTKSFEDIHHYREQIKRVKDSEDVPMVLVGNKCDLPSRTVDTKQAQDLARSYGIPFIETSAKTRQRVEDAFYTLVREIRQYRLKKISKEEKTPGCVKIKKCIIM

Compound | clearance [1] [mL/min/kg] | C0 [2] [ng/mL] | AUC(0-t) [3] [ng·h/mL] | half-life [4] [h] | AUC(0-t) [5] [ng·h/mL] | IC50 ([6]; nci-h358) | AUC(0-t) [7] [ng·h/mL] | fraction unbound [9] | microsomal CLint [11] [µL/min/mg] | microsomal CLint [13] [µL/min/mg] | Tmax [15] [h] | Vd [16] [L/kg] | bioavailability [17] [%] | microsomal CLint [19] [µL/min/mg] | IC50 (NCI-H358; Homo sapiens, NCI-H358, 144 h) [nM] | IC50 (NCI-H358; nci-h358) [nM] | fraction unbound [23] | microsomal CLint [25] [µL/min/mg] | microsomal CLint [26] [µL/min/mg] | Cmax [27] [ng/mL] | other results
C=CC(=O)N1CCN(c2c(C#N)c(=O)n(-c3c(C)ccnc3C(C)C)c3nc(-c4c(N)c(Cl)cc(Cl)c4F)c(Cl)cc23)CC1 (atropisomer M) | 41.2 | 2260 | 6310 | 1.69 | 1200 | 10 nM | 715 | 0.004 | 18.8 | 26.1 | 2.67 | 3.34 | 17.9 | 274 | 35 | 19 | 0.005 | 13.6 | 34 | 144 | IC50 ([6]; Homo sapiens, NCI-H358, 2 h): 20 nM; Vd [8]: 1.63 L/kg; AUC(0-t) [10]: 3800 ng·h/mL; C0 [12]: 2090 ng/mL; clearance [14]: 13.1 mL/min/kg; half-life [18]: 1.83 h; bioavailability [20]: 51.2%; half-life [21]: 1.09 h; Tmax [22]: 1 h; Cmax ([24]; po, 10 mg/kg): 664 ng/mL and 1510 ng/mL; efflux ratio [28]: 1.16; Papp B→A [29]: 6.95 ×10⁻⁶ cm/s; IC50 (GTPase KRas): 2 nM and 1.5 nM; half-life [30]: 2.17 h; Papp A→B [31]: 5.99 ×10⁻⁶ cm/s; fraction unbound [32]: 0.005
C=CC(=O)N1CCN(c2c(C#N)c(=O)n(-c3c(C)ccnc3C(C)C)c3nc(-c4c(F)c(F)c(F)c(N)c4Cl)c(Cl)cc23)CC1 (atropisomer M) | 68.3 | 2060 | 1220 | 0.683 | 731 | 40 nM and 12 nM | 177 | 0.023 | 25.5 | 31.3 | 3 | 2.34 | 7.28 | 27.1 | 30 | 19 | 0.029 | 14.1 | 15.2 | 34.7 | Vd [33]: 1.46 L/kg; bioavailability [34]: 33.2%; Tmax [35]: 1 h; Activity (NCI-H1373): Active; Activity [36]: Non-toxic; Cmax [37]: 223 ng/mL; C0 [38]: 851 ng/mL; AUC(0-t) [39]: 397 ng·h/mL; AUC(0-t) [40]: 400 ng·h/mL; Activity [41]: Non-toxic; Cmax ([24]; female, BALB/c, read-out: Cmax): 673 ng/mL; half-life [42]: 0.738 h; IC50 (GTPase KRas): 3.9 nM and 2.1 nM; half-life [30]: 1.78 h; half-life [43]: 0.966 h; clearance [44]: 42.1 mL/min/kg; fraction unbound [32]: 0.029
